Assay results taken from patent US10266544B2, “Aryl substituted aminomethyl spectinomycin analogs as antibacterial agents” (ST. JUDE CHILDREN'S RESEARCH HOSPITAL, INC., priority 2013, dated 2019).
Counter-ions that a name gives are not always drawn.

Tested on: live vaccine strain (LVS) of Francisella tularensis
Test: microbe, parasite or virus in culture
Type: cell-based
Conditions: introduction of the methyl-linked phenyl ring

SMILES: CN[C@@H]1[C@H](O)[C@H](NC)[C@H]2O[C@]3(O)[C@H](O[C@@H]2[C@H]1O)O[C@H](C)C[C@@]3(O)CNCc1ccccc1 [compound 1, 3′-(R)-3′-(benzylaminomethyl)dihydrospectinomycin Trihydrochloride]
- activity against Francisella tularensis LVS: well tolerated
